Laboratory results reported in ChEMBL document CHEMBL1133283, “Arylsulfonyl-N,N-diethyl-dithiocarbamates: a novel class of antitumor agents” (Bioorg Med Chem Lett, 2000).

What was measured:
NCI-H226 = assay: In vitro growth inhibition of compound was determined against NCI-H226 cell lines of non-small cell lung cancer; format: functional; conditions: Homo sapiens
HOP-92 = assay: In vitro growth inhibition of compound was determined against HOP-92 cell lines of non-small cell lung cancer; format: functional; conditions: Homo sapiens
MDA-MB-231 = assay: In vitro growth inhibition of compound was determined against MDA-MB-231/ATCC cell lines of Breast cancer; format: functional; conditions: Homo sapiens
SF-295 = assay: In vitro growth inhibition of compound was determined against SF-295 cell lines of CNS cancer; format: functional; conditions: Homo sapiens
CAKI-1 = assay: In vitro growth inhibition of compound was determined against CAKI-1 cell lines of Renal cancer; format: functional; conditions: Homo sapiens
OVCAR-3 = assay: In vitro growth inhibition of compound was determined against OVCAR-3 cell lines of Ovarian cancer; format: functional; conditions: Homo sapiens
A549 = assay: In vitro growth inhibition of compound was determined against A549/ATCC cell lines of non-small cell lung cancer; format: functional; conditions: Homo sapiens
HL-60 = assay: In vitro growth inhibition of compound was determined against HL-60(TB) cell lines of Leukemia; format: functional; conditions: Homo sapiens
786-0 = assay: In vitro growth inhibition of compound was determined against […] cell lines of Renal cancer; format: functional; conditions: Homo sapiens
LOX IMVI = assay: In vitro growth inhibition of compound was determined against LOX IMVI cell lines of Melanoma; format: functional; conditions: Homo sapiens
SNB-75 = assay: In vitro growth inhibition of compound was determined against SNB-75 cell lines of CNS cancer; format: functional; conditions: Homo sapiens
M14 = assay: In vitro growth inhibition of compound was determined against M14 cell lines of Melanoma; format: functional; conditions: Homo sapiens
SK-MEL-28 = assay: In vitro growth inhibition of compound was determined against SK-MEL-28 cell lines of Melanoma; format: functional; conditions: Homo sapiens
HT-29 = assay: In vitro growth inhibition of compound was determined against HT-29 cell lines of colon cancer; format: functional; conditions: Homo sapiens
RXF 393 = assay: In vitro growth inhibition of compound was determined against RXF393 cell lines of Renal cancer; format: functional; conditions: Homo sapiens
IGROV-1 = assay: In vitro growth inhibition of compound was determined against IGROVI cell lines of Ovarian cancer; format: functional; conditions: Homo sapiens
Malme-3M = assay: In vitro growth inhibition of compound was determined against MALME-3M cell lines of Melanoma; format: functional; conditions: Homo sapiens
OVCAR-4 = assay: In vitro growth inhibition of compound was determined against OVCAR-4 cell lines of Ovarian cancer; format: functional; conditions: Homo sapiens
CCRF-CEM = assay: In vitro growth inhibition of compound was determined against CCRF-CEM cell lines of Leukemia; format: functional; conditions: Homo sapiens
SW-620 = assay: In vitro growth inhibition of compound was determined against SW-620 cell lines of colon cancer; format: functional; conditions: Homo sapiens
MDA-N = assay: In vitro growth inhibition of compound was determined against MDA-Ncell lines of Breast cancer; format: functional; conditions: Homo sapiens
UO-31 = assay: In vitro growth inhibition of compound was determined against UO-31 cell lines of Renal cancer; format: functional; conditions: Homo sapiens
PC-3 = assay: In vitro growth inhibition of compound was determined against PC-3 cell lines of Prostate cancer; format: functional; conditions: Homo sapiens
OVCAR-8 = assay: In vitro growth inhibition of compound was determined against OVCAR-8 cell lines of Ovarian cancer; format: functional; conditions: Homo sapiens
SF-268 = assay: In vitro growth inhibition of compound was determined against SF-268 cell lines of CNS cancer; format: functional; conditions: Homo sapiens
U-251 = assay: In vitro growth inhibition of compound was determined against U251 cell lines of CNS cancer; format: functional; conditions: Homo sapiens
HCT-15 = assay: In vitro growth inhibition of compound was determined against HCT-15 cell lines of colon cancer; format: functional; conditions: Homo sapiens
UACC-257 = assay: In vitro growth inhibition of compound was determined against UACC-257 cell lines of Melanoma; format: functional; conditions: Homo sapiens
ACHN = assay: In vitro growth inhibition of compound was determined against ACHN cell lines of Renal cancer; format: functional; conditions: Homo sapiens
SR = assay: In vitro growth inhibition of compound was determined against SR cell lines of Leukemia; format: functional; conditions: Homo sapiens
HOP-62 = assay: In vitro growth inhibition of compound was determined against HOP-62 cell lines of non-small cell lung cancer; format: functional; conditions: Homo sapiens
COLO 205 = assay: In vitro growth inhibition of compound was determined against COLO-205 cell lines of colon cancer; format: functional; conditions: Homo sapiens
MCF7 = assay: In vitro growth inhibition of compound was determined against MCF-7 cell lines of Breast cancer; format: functional; conditions: Homo sapiens
NCI-H522 = assay: In vitro growth inhibition of compound was determined against NCI-H522 cell lines of non-small cell lung cancer; format: functional; conditions: Homo sapiens
SK-MEL-5 = assay: In vitro growth inhibition of compound was determined against SK-MEL-5 cell lines of Melanoma; format: functional; conditions: Homo sapiens
DU-145 = assay: In vitro growth inhibition of compound was determined against DU-145 cell lines of Prostate cancer; format: functional; conditions: Homo sapiens
Carbonic anhydrase 2 = Carbonic anhydrase 2 (Homo sapiens, UniProt P00918); assay: Binding affinity of compound against human Carbonic anhydrase II
Hs-578T = assay: In vitro growth inhibition of compound was determined against Hs 578.T cell lines of Breast cancer; format: functional; conditions: Homo sapiens
KM12 = assay: In vitro growth inhibition of compound was determined against KM12 cell lines of colon cancer; format: functional; conditions: Homo sapiens
MDA-MB-435 = assay: In vitro growth inhibition of compound was determined against MDA-MB-435 cell lines of Breast cancer; format: functional; conditions: Homo sapiens
NCI/ADR-RES = assay: In vitro growth inhibition of compound was determined against NCI/ADR-RES cell lines of Breast cancer; format: functional; conditions: Homo sapiens
HCT-116 = assay: In vitro growth inhibition of compound was determined against HCT116 cell lines of colon cancer; format: functional; conditions: Homo sapiens
BT-549 = assay: In vitro growth inhibition of compound was determined against BT-549 cell lines of Breast cancer; format: functional; conditions: Homo sapiens
SN12C = assay: In vitro growth inhibition of compound was determined against SN12C cell lines of Renal cancer; format: functional; conditions: Homo sapiens
TK-10 = assay: In vitro growth inhibition of compound was determined against TK-10 cell lines of Renal cancer; format: functional; conditions: Homo sapiens
K562 = assay: In vitro growth inhibition of compound was determined against K-562 cell lines of Leukemia; format: functional; conditions: Homo sapiens
SF-539 = assay: In vitro growth inhibition of compound was determined against SF-539 cell lines of CNS cancer; format: functional; conditions: Homo sapiens
HCC 2998 = assay: In vitro growth inhibition of compound was determined against HCC2998 cell lines of colon cancer; format: functional; conditions: Homo sapiens
RPMI-8226 = assay: In vitro growth inhibition of compound was determined against RPMI-8226 cell lines of Leukemia; format: functional; conditions: Homo sapiens

Work on `CCN(CC)C(=S)SS(=O)(=O)c1ccccc1C(=O)O` yielded a GI50 (NCI-H226) of over 100 µM, a GI50 (HOP-92) of over 100 µM and a GI50 (MDA-MB-231) of over 100 µM. For the same molecule, the GI50 (SF-295) was over 100 µM, the GI50 (CAKI-1) was over 100 µM and the GI50 (OVCAR-3) was over 100 µM. It also gave a GI50 (A549) of 6.5 µM, a GI50 (HL-60) of 1.4 µM and a GI50 (786-0) of over 100 µM. The GI50 (LOX IMVI) was over 100 µM, the GI50 (SNB-75) was over 100 µM and the GI50 (M14) was over 100 µM. For the same molecule, the GI50 (SK-MEL-28) was over 100 µM, the GI50 (HT-29) was over 100 µM and the GI50 (RXF 393) was over 100 µM. For the same molecule, the GI50 (IGROV-1) was over 100 µM, the GI50 (Malme-3M) was 91 µM and the GI50 (OVCAR-4) was over 100 µM. It also gave a GI50 (CCRF-CEM) of 82 µM, a GI50 (SW-620) of over 100 µM and a GI50 (MDA-N) of over 100 µM. For the same molecule, the GI50 (UO-31) was over 100 µM, the GI50 (PC-3) was over 100 µM and the GI50 (OVCAR-8) was over 100 µM. The GI50 (SF-268) was over 100 µM, the GI50 (U-251) was over 100 µM and the GI50 (HCT-15) was over 100 µM. It also gave a GI50 (UACC-257) of over 100 µM, a GI50 (ACHN) of over 100 µM and a GI50 (SR) of 3.6 µM. The GI50 (HOP-62) was over 100 µM, the GI50 (COLO 205) was over 100 µM and the GI50 (MCF7) was over 100 µM. It also gave a GI50 (NCI-H522) of 1.2 µM, a GI50 (SK-MEL-5) of 37 µM and a GI50 (DU-145) of over 100 µM.

Molecule `NS(=O)(=O)c1ccc(NSC(=S)N2CCOCC2)cc1` has a Ki (Carbonic anhydrase 2) of 0.035 µM.

With `CCN(CC)C(=S)SS(=O)(=O)c1ccc([N+](=O)[O-])cc1` the GI50 (NCI-H226) was 83 µM, the GI50 (Hs-578T) was over 100 µM and the GI50 (KM12) was 11 µM. The GI50 (HOP-92) was 4 µM, the GI50 (MDA-MB-231) was 26 µM and the GI50 (SF-295) was 59 µM. The GI50 (CAKI-1) was 18 µM, the GI50 (OVCAR-3) was 35 µM and the GI50 (MDA-MB-435) was 23 µM. For the same molecule, the GI50 (A549) was 1 µM, the GI50 (786-0) was 16 µM and the GI50 (LOX IMVI) was 17 µM. The GI50 (SNB-75) was 77 µM, the GI50 (M14) was 15 µM and the GI50 (SK-MEL-28) was 19 µM. It also gave a GI50 (HT-29) of 22 µM, a GI50 (RXF 393) of 16 µM and a GI50 (NCI/ADR-RES) of 48 µM. The GI50 (HCT-116) was 5 µM, the GI50 (BT-549) was 36 µM and the GI50 (Malme-3M) was 14 µM. It also gave a GI50 (OVCAR-4) of 45 µM, a GI50 (SW-620) of 18 µM and a GI50 (SN12C) of 27 µM. For the same molecule, the GI50 (MDA-N) was 30 µM, the GI50 (UO-31) was 21 µM and the GI50 (OVCAR-8) was 20 µM. The GI50 (TK-10) was 43 µM, the GI50 (K562) was 19 µM and the GI50 (SF-268) was over 100 µM. The GI50 (U-251) was 14 µM, the GI50 (HCT-15) was 52 µM and the GI50 (UACC-257) was 24 µM. The GI50 (ACHN) was 36 µM, the GI50 (SR) was 0.1 µM and the GI50 (HOP-62) was 32 µM. For the same molecule, the GI50 (COLO 205) was 19 µM, the GI50 (MCF7) was 6 µM and the GI50 (SF-539) was 20 µM. For the same molecule, the GI50 (NCI-H522) was 0.02 µM, the GI50 (SK-MEL-5) was 2 µM and the GI50 (HCC 2998) was 94 µM. For the same molecule, the GI50 (RPMI-8226) was 12 µM and the GI50 (DU-145) was 27 µM.
